Measurements published in the NIST ThermoML archive (doi:10.1021/je900478c).

Test: xn = mol fraction of the nth substance listed
Conditions: 101 kPa, Liquid; for viscosity: Capillary tube (Ostwald / Ubbelohde) method

CCCCCCOCCOCCO [2-(2-hexyloxyethoxy)ethanol] + O
mass density [kg/m3]
Conditions	283.15 K	288.15 K	293.15 K	303.15 K	313.15 K
x1 = 0.0005	999.68	999.08	998.19	995.64	992.26
x1 = 0.00075	999.67	999.06	998.17	995.59	992.23
x1 = 0.001	999.66	999.07	998.17	995.58	992.18
x1 = 0.00118	999.7	999.09	998.17	995.57	992.11
x1 = 0.00135	999.76	999.14	998.2	995.58	992.03
x1 = 0.0015	999.84	999.17	998.16	995.51	991.94
x1 = 0.00164	999.86	999.18	998.09	–	–
x1 = 0.00196	999.87	999.15	–	–	–
x1 = 0.00225	999.88	999.08	–	–	–
x1 = 0.01501	995.9	–	–	–	–
x1 = 0.01996	994.71	–	–	–	–
x1 = 0.02493	993.53	–	–	–	–
x1 = 0.03004	992.45	–	–	–	–
x1 = 0.03536	991.13	–	–	–	–
x1 = 0.03996	990.1	–	–	–	–
x1 = 0.04496	989.11	–	–	–	–
x1 = 0.0501	988.12	985.54	–	–	–
x1 = 0.05911	986.43	983.76	–	–	–
x1 = 0.06985	984.69	982.01	979.28	–	–
x1 = 0.07977	983.2	980.24	977.23	–	–
x1 = 0.08835	982.02	978.92	975.77	–	–
x1 = 0.09988	980.51	977.4	973.98	–	–
x1 = 0.1332	976.63	973.14	969.58	962.38	–
x1 = 0.2029	970.18	966.49	962.68	955.04	947.26
x1 = 0.2856	964.36	960.42	956.52	948.66	940.71
x1 = 0.3597	960.18	956.18	952.21	944.22	936.21
x1 = 0.4529	955.83	951.8	947.82	939.82	931.76
x1 = 0.5426	952.4	948.39	944.4	936.42	928.33
x1 = 0.6772	948.33	944.25	940.24	932.25	924.21
x1 = 0.827	945.13	941.05	937.03	929.05	921.02
x1 = 1	942.09	938.05	934.06	926.08	918.17

CCCCOCCO [2-butoxyethan-1-ol] + O
Conditions	mass density, 283.15 K [kg/m3]	mass density, 293.15 K [kg/m3]	mass density, 303.15 K [kg/m3]	mass density, 313.15 K [kg/m3]	mass density, 323.15 K [kg/m3]	viscosity, 283.15 K [mPa·s]	viscosity, 293.15 K [mPa·s]	viscosity, 303.15 K [mPa·s]	viscosity, 313.15 K [mPa·s]	viscosity, 323.15 K [mPa·s]
x1 = 0.0005	999.62	998.13	995.57	992.12	–	–	–	–	–	–
x1 = 0.001	999.53	998.01	995.46	992.02	–	–	–	–	–	–
x1 = 0.00201	999.43	997.89	995.29	991.8	–	–	–	–	–	–
x1 = 0.003	999.37	997.78	995.12	991.58	–	–	–	–	–	–
x1 = 0.00399	999.24	997.6	994.89	991.31	–	–	–	–	–	–
x1 = 0.005	999.06	997.34	994.59	990.98	–	–	–	–	–	–
x1 = 0.00601	998.89	997.11	994.27	990.64	–	–	–	–	–	–
x1 = 0.00699	998.86	996.97	994.06	990.36	–	–	–	–	–	–
x1 = 0.00801	998.8	996.83	993.86	990.11	–	–	–	–	–	–
x1 = 0.00896	998.72	996.7	993.69	989.86	–	–	–	–	–	–
x1 = 0.00998	998.68	996.57	993.5	989.6	–	–	–	–	–	–
x1 = 0.01102	998.64	996.43	993.3	989.31	–	–	–	–	–	–
x1 = 0.01209	998.59	996.3	993.09	988.99	–	–	–	–	–	–
x1 = 0.01317	998.55	996.16	992.85	988.65	–	–	–	–	–	–
x1 = 0.01401	998.49	996.02	992.63	988.37	–	–	–	–	–	–
x1 = 0.01499	998.49	995.91	992.38	988.01	–	–	–	–	–	–
x1 = 0.01959	998.45	994.9	990.79	985.95	–	–	–	–	–	–
x1 = 0.02529	997	992.94	988.38	983.21	–	–	–	–	–	–
x1 = 0.0307	995.31	990.88	986.03	980.66	–	–	–	–	–	–
x1 = 0.03495	993.94	989.28	984.22	978.71	–	–	–	–	–	–
x1 = 0.04047	992.16	987.22	981.99	976.24	–	–	–	–	–	–
x1 = 0.04524	990.59	985.5	980.12	974.25	–	–	–	–	–	–
x1 = 0.04961	989.23	983.99	978.47	972.5	–	–	–	–	–	–
x1 = 0.05991	986.08	980.54	974.75	968.52	–	–	–	–	–	–
x1 = 0.06979	983.28	977.49	971.48	965.02	–	–	–	–	–	–
x1 = 0.07979	980.63	974.61	968.38	961.77	–	–	–	–	–	–
x1 = 0.08979	978.05	971.87	965.46	958.67	–	–	–	–	–	–
x1 = 0.1003	975.52	969.12	962.59	955.66	–	5.489	3.791	2.772	2.126	–
x1 = 0.2	957.51	950.15	942.62	934.8	926.83	7.107	4.854	3.483	2.584	1.979
x1 = 0.3	945.28	937.5	929.57	921.47	913.23	7.415	5.079	3.64	2.698	2.054
x1 = 0.4	935.77	927.76	919.6	911.3	902.87	7.234	4.994	3.594	2.672	2.038
x1 = 0.5	928.69	920.54	912.16	903.78	895.22	6.83	4.761	3.448	2.583	1.981
x1 = 0.6	923.16	914.96	906.6	898.14	889.56	6.352	4.476	3.272	2.465	1.901
x1 = 0.7	918.7	910.49	902.02	893.57	884.96	5.857	4.172	3.079	2.337	1.813
x1 = 0.7999	915.01	906.78	898.3	889.84	881.26	5.36	3.865	2.879	2.205	1.721
x1 = 0.9	912.08	903.8	895.3	886.83	878.23	4.885	3.56	2.679	2.068	1.629
x1 = 1	909.49	901.18	892.68	884.21	875.6	4.46	3.288	2.499	1.946	1.543
